# Measurements: ChEMBL document CHEMBL1128401, “Structure-activity relationships in the 8-amino-6,7,8,9-tetrahydro-3H-benz[e]indole ring system. 1. Effects of substituents in the aromatic system on serotonin and dopamine receptor subtypes” (J Med Chem, 1995)
# Calls of active or inactive are those of the source. The rule behind the calls is not given here.
# Tests used:
# D(3) dopamine receptor [1] = target: T1, D(3) dopamine receptor (Rattus norvegicus, UniProt P19020); test: Binding affinity against Dopamine receptor D3 expressed in CHO-K1 cells, using [3H]spiperone as the radioligand.; format: cell-based
# Rattus norvegicus [2] = test: In vivo for DOPA accumulation in corpus striatum against reserpine-pretreated rats.; format: functional
# Rattus norvegicus [3] = test: In vivo for DOPA accumulation in limbic system against reserpine-pretreated rats.; format: functional
# D(2) dopamine receptor [4] = target: T2, D(2) dopamine receptor (Rattus norvegicus, UniProt P61169); test: Binding affinity against Dopamine receptor D2 expressed in CHO-K1 cells, using [3H]U-86170 as the radioligand.; format: cell-based
# [5] = target: 5-hydroxytryptamine receptor 1D (Homo sapiens, UniProt P28221); test: Binding affinity against 5-hydroxytryptamine 1D receptor alpha expressed in CHO-K1 cells, using [3H]-5-HT as the radioligand.; format: cell-based; conditions: read-out: Ki
# Rattus norvegicus [6] = test: In vivo for 5-HTP accumulation in hemispheres (cortex) against reserpine-pretreated rats.; format: functional
# Rattus norvegicus [7] = test: The Compound was tested in vivo for DOPA accumulation in hemispheres (cortex) against reserpine-pretreated rats; Iinactive at the highest dose tested (12.5).; format: functional, organism-based
# [8] = target: 5-hydroxytryptamine receptor 1B (Homo sapiens, UniProt P28222); test: Binding affinity against 5-hydroxytryptamine 1D receptor beta expressed in CHO-K1 cells, using [3H]5-HT as the radioligand.; format: cell-based
# Rattus norvegicus [9] = test: In vivo for 5-HTP accumulation in limbic system against reserpine-pretreated rats.; format: functional
# Rattus norvegicus [10] = test: In vivo for 5-HTP accumulation in corpus striatum against reserpine-pretreated rats.; format: functional
# D(2) dopamine receptor [11] = target: T2, D(2) dopamine receptor; test: Binding affinity against Dopamine receptor D2 from CHO-K1 cells, using [3H]U-86,170 as the radioligand.; format: cell-based
# [12] = target: T3, 5-hydroxytryptamine receptor 1A (Rattus norvegicus, UniProt P19327); test: Binding affinity against 5-hydroxytryptamine 1A receptor from CHO-K1 cells, using [3H]8-OH-DPAT as the radioligand.; format: cell-based
# T3 sequence (P19327 whole entry): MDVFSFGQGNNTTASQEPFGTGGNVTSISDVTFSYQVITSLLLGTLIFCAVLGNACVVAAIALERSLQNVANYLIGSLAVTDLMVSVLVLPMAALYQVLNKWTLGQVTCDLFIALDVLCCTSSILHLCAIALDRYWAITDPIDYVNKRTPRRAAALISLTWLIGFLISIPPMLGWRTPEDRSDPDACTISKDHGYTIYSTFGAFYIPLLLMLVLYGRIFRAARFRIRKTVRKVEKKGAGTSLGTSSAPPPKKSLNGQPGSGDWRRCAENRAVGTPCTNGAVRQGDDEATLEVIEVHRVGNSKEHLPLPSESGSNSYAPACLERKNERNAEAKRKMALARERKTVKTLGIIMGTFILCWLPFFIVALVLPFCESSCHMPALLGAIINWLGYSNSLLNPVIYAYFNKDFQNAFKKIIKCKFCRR
# Rattus norvegicus [13] = test: The Compound was tested in vivo for DOPA accumulation in hemispheres (cortex) against reserpine-pretreated rats;I= inactive at the highest dose (12.5); format: functional, organism-based
# [14] = Bioavailability in rat plasma following iv/po dose; format: ADME, organism-based
# [15] = Ratio of the 5-HTP accumulation decrease in limbic regions after oral and subcutaneous administration in rat.; format: functional, Limbic system
# [16] = tmax in hours at a po dose of 10.0(pmol/g/h).; format: ADME, organism-based; conditions: in vivo, 10 pmol/g/h
# Rattus norvegicus [17] = test: Bioavailability in male Sprague-Dawley rats, after the iv administration at a dose of 2.0(pmol/g/h); format: ADME, organism-based; conditions: in vivo
# [18] = tmax in hours at a iv dose of 2.0(pmol/g/h).; format: ADME, organism-based; conditions: in vivo
# Rattus norvegicus [19] = test: Bioavailability in male Sprague-Dawley rats, after the po administration at a dose of 10.0(pmol/g/h); format: ADME, organism-based; conditions: in vivo
# D(3) dopamine receptor [20] = target: T1, D(3) dopamine receptor; test: Binding affinity against Dopamine receptor D3 from CHO-K1 cells, using [3H]spiperone as the radioligand.; format: cell-based; conditions: read-out: Ki
# Rattus norvegicus [21] = test: The Compound was tested in vivo for DOPA accumulation in hemispheres (cortex) against reserpine-pretreated rats; I=inactive at the highest dose tested (50).; format: functional, organism-based
# Rattus norvegicus [22] = test: The compound was tested in vivo for DOPA accumulation in hemispheres (cortex) against reserpine-pretreated rats;I= inactive at the highest dose tested; format: functional, organism-based
# Rattus norvegicus [23] = test: compound was tested in vivo for 5-HTP accumulation in corpus striatum against reserpine-pretreated rats, activity expressed as ED50; format: functional
# Rattus norvegicus [24] = test: The Compound was tested in vivo for DOPA accumulation in hemispheres (cortex) against reserpine-pretreated rats;I= inactive at the highest dose (40); format: functional, organism-based
# Rattus norvegicus [25] = test: Compound was tested in vivo for DOPA accumulation in corpus striatum against reserpine-pretreated rats;P= significant partial reduction only at the highest dose tested (40).; format: functional, organism-based
# Rattus norvegicus [26] = test: The Compound was tested in vivo for DOPA accumulation in limbic system against reserpine-pretreated rats; P=significant partial reduction only at the highest dose tested (40).; format: functional, organism-based
# Rattus norvegicus [27] = test: Compound was tested in vivo for 5-HTP accumulation in hemispheres (cortex) against reserpine-pretreated rats; significant partial reduction only at the highest dose tested (40).; format: functional, organism-based
# D(2) dopamine receptor [28] = target: T2, D(2) dopamine receptor; conditions: cho-k1
# D(3) dopamine receptor [29] = target: T1, D(3) dopamine receptor; test: Compound was tested for binding affinity against Dopamine receptor D3 expressed in CHO-K1 cells, using [3H]spiperone as the radioligand; I= inactive at the highest dose tested (12.5).; format: cell-based
# Rattus norvegicus [30] = test: Compound was tested in vivo for DOPA accumulation in corpus striatum against reserpine-pretreated rats; P=significant partial reduction only at the highest dose tested (50).; format: functional, organism-based
# Rattus norvegicus [31] = test: The Compound was tested in vivo for DOPA accumulation in limbic system against reserpine-pretreated rats; P=significant partial reduction only at the highest dose tested (50).; format: functional, organism-based
# T2 sequence (P61169 whole entry): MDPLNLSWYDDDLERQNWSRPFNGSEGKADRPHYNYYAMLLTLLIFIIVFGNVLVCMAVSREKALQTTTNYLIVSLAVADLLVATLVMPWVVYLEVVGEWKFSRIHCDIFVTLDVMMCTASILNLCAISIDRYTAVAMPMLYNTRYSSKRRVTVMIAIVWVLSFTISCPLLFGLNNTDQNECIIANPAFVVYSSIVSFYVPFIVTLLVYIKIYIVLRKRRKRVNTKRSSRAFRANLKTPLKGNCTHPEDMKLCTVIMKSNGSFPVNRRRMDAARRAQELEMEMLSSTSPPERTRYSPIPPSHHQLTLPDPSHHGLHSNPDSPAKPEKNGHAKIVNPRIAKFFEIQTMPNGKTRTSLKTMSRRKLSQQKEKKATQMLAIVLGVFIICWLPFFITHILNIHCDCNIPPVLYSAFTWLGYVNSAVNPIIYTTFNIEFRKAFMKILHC
# Chain of 5-hydroxytryptamine receptor 1D (P28221 whole entry): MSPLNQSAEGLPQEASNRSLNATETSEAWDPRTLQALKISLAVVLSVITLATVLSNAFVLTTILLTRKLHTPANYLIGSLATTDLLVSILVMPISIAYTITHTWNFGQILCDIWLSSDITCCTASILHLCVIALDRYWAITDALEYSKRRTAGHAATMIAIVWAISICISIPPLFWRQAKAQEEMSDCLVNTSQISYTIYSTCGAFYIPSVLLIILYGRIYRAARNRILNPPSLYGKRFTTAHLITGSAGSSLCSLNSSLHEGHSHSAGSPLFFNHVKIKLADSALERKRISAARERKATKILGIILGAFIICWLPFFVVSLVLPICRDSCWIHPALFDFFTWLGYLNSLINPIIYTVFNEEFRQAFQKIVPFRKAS
# T1 sequence (P19020 whole entry): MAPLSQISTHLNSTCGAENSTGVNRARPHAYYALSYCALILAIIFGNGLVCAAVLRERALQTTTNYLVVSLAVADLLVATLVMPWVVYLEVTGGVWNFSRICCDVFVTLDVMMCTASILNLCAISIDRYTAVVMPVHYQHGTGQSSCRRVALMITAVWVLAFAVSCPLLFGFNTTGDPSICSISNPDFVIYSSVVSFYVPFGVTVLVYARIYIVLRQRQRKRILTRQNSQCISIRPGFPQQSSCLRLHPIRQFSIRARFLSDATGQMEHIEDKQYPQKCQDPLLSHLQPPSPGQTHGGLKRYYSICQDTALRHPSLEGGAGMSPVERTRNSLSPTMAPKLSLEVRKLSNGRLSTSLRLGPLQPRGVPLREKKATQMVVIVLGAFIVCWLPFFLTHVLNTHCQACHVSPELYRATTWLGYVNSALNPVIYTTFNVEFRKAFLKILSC
# Chain of 5-hydroxytryptamine receptor 1B (P28222 whole entry): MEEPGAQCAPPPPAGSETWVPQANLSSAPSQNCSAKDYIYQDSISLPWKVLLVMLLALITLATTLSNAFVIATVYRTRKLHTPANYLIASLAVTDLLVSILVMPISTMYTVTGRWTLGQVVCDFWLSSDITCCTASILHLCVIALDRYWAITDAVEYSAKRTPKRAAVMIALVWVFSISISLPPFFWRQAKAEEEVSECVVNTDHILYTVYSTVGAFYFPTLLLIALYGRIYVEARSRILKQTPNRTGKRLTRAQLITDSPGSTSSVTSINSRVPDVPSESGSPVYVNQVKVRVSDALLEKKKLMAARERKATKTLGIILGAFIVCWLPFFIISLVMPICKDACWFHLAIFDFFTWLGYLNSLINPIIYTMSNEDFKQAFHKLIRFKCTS
Structure (SMILES),Ki [5],Ki ([8]; read-out: Ki),ED50 (Rattus norvegicus [9]),ED50 (Rattus norvegicus [10]),Ki (D(2) dopamine receptor [11]),Ki [12],Ki (D(3) dopamine receptor [20]),further results
CCCN(CCC)C1CCc2ccc3[nH]ccc3c2C1 (configuration not stated),40 nM,349 nM,0.096 µmol/kg,0.076 µmol/kg,–,–,–,Ki (D(3) dopamine receptor [1]): 37 nM; ED50 (Rattus norvegicus [2]): 0.3 µmol/kg; ED50 (Rattus norvegicus [3]): 0.15 µmol/kg; Ki (D(2) dopamine receptor [4]): 15 nM; ED50 (Rattus norvegicus [6]): 0.17 µmol/kg; ED50 (Rattus norvegicus [7]): inactive
CCCN(CCC)[C@@H]1CCc2cc(F)c3[nH]ccc3c2C1,–,142 nM,0.53 µmol/kg,0.7 µmol/kg,7.8 nM,1.5 nM,–,ED50 (Rattus norvegicus [2]): 0.63 µmol/kg; ED50 (Rattus norvegicus [3]): 0.49 µmol/kg; ED50 (Rattus norvegicus [6]): 0.51 µmol/kg; ED50 (Rattus norvegicus [13]): inactive
CN(C)[C@H]1CCc2ccc3[nH]ccc3c2C1,–,–,–,–,–,–,–,bioavailability [14]: 72%; ED50 ratio [15]: 18; Tmax [16]: 48 h; AUC (Rattus norvegicus [17]): 607 pM ml-1; Tmax [18]: 2 h; AUC (Rattus norvegicus [19]): 2224 pM ml-1
CCCN(CCC)C1CCc2ccc3c(c2C1)CC(=O)N3 (configuration not stated),26 nM,194 nM,0.45 µmol/kg,0.41 µmol/kg,11 nM,14 nM,23 nM,ED50 (Rattus norvegicus [2]): 0.25 µmol/kg; ED50 (Rattus norvegicus [3]): 0.17 µmol/kg; ED50 (Rattus norvegicus [6]): 0.86 µmol/kg; ED50 (Rattus norvegicus [21]): inactive
CCCN(CCC)[C@H]1CCc2ccc3[nH]cc(C=O)c3c2C1,155 nM,939 nM,–,–,423 nM,–,751 nM,ED50 (Rattus norvegicus [22]): inactive; ED50 (Rattus norvegicus [23]): 0.0052 µmol/kg
CCCN(CCC)C1CCc2cc(F)c3[nH]cc(C(=O)CC)c3c2C1 (configuration not stated),36 nM,–,6.34 µmol/kg,3.94 µmol/kg,377 nM,7.1 nM,542 nM,ED50 (Rattus norvegicus [24]): inactive; ED50 (Rattus norvegicus [25]): Weak activity; ED50 (Rattus norvegicus [26]): Weak activity; Ki ([8]; cho-k1): Not Active; ED50 (Rattus norvegicus [27]): Active
CCCN(CCC)C1CCc2ccc3[nH]cc(C(=O)C(=O)N(CC)CC)c3c2C1 (configuration not stated),–,–,–,–,–,7.3 nM,–,–
CCCN(CCC)[C@H]1CCc2ccc3[nH]cc(C(=O)C(N)=O)c3c2C1,440 nM,1100 nM,–,–,–,49 nM,–,Ki (D(2) dopamine receptor [28]): Not Active; Ki (D(3) dopamine receptor [29]): Not Active
CCCN(CCC)[C@H]1CCc2ccc3[nH]cc(C#N)c3c2C1,42 nM,304 nM,–,–,–,0.5 nM,–,Ki (D(3) dopamine receptor [1]): 391 nM; ED50 (Rattus norvegicus [30]): Weak activity; Ki (D(2) dopamine receptor [4]): 419 nM; ED50 (Rattus norvegicus [21]): inactive; ED50 (Rattus norvegicus [31]): Weak activity
CCCc1c[nH]c2c(F)cc3c(c12)CC(N(CCC)CCC)CC3 (configuration not stated),8.4 nM,177 nM,–,–,5.9 nM,11 nM,111 nM,–
CCCN(CCC)C1CCc2cc(F)c3c(ccn3C)c2C1 (configuration not stated),217 nM,1650 nM,–,–,86 nM,250 nM,52 nM,–
